The values below come from US11612604B2, “Methods of treating cancer with PLK4 inhibitors” (LUDWIG INSTITUTE FOR CANCER RESEARCH LTD, priority 2017, dated 2023).

Assay [1] relates to neuroblastoma cell lines (SH-SY5Y, CHP134, IMR32, CHP212, SK-N-SH, SK-N-F1). Put plainly: Proliferation (12-day passaging) assay, neuroblastoma cell lines. The format is cell-based. The conditions noted are these: 150 nM centrinone, 12 days, all 6 neuroblastoma cell lines. How it is done:
(§1) All 6 of the neuroblastoma cell lines grew robustly in the presence of DMSO in 12-day passaging assays.
(§2) Plated cell numbers were adjusted to the cell line characteristics (doubling time and cell size). At 96-hour intervals, plates were harvested, counted and re-plated at 25,000-150,000 cells/plate. Cell counting was performed using a TC20 automated cell counter (Bio-Rad).

The subject of assay [2] is control cell lines (HepG2, BT-12, BT-16, SK-ES-1, A673). Put plainly: Proliferation (12-day passaging) assay, control cell lines. The format is cell-based. The conditions noted are these: 150 nM centrinone, 12 days, five control cell lines. How it is done: as §1, §2
Assay [3] relates to CHP134 cells harboring the G95L mutant PLK4. Briefly: Proliferation (passaging) assay, CHP134 cells with G95L mutant PLK4. The assay is classed as cell-based. The conditions noted are these: 150 nM centrinone. The protocol: as §1
(§3) Cell lines: Cells were maintained in ATCC-recommended complete growth media with 100 U/mL penicillin and 100 μg/mL streptomycin at 37° C. and 5% CO2. The RPE-1 TRIM37Δ knockout cell line was previously described (Meitinger et al., 2016). The CHP134 and HCT116 TRIM37Δ knockout cell lines were generated by transfection and nucleofection, respectively, of preassembled RNPs using a TRIM37 specific gRNA ([…]). The CHP134 G95L cell line was generated as previously described (Wong et al., 2015). For generation of H2B-mRFP expressing cell lines, cells were infected with a H2B-mRFP expressing lentiviral construct (Meitinger et al., 2016). Populations of each cell line expressing H2B-mRFP were enriched by FACS. To knock down TP53 (p53), cells were infected with a lentivirus containing sh-p53 made using the plasmid shp53 pLKO.1 puro (Godar et al., Cell. 134:62-73 (2008)). Positive selection of sh-p53 expressing cells was performed 2 days after infection with 10 μg/ml puromycin.
as §2

The subject of assay [4] is breast cancer cell lines (BT474, MCF7, MDA-MB-231). Put plainly: Proliferation (passaging) assay, breast cancer cell lines. The assay is classed as cell-based. The conditions noted are these: 150 nM centrinone, BT474 and MCF7 (TRIM37 locus amplified). The protocol:
Sensitivity to centrosome removal correlated with TRIM37 copy number in breast cancer as well. FIG. 3A is a graph plotting TRIM37 copy number versus expression level for breast cancer cell lines (data from the CCLE database; (Barretina et al., 2012)).
as §2

In assay [5] the test system is caspase-3/7 activity in 'Sensitive' neuroblastoma and 'Not Sensitive' (RPE1, BT-12, BT-16) cell lines. Put plainly: Caspase activation assay. The assay is classed as cell-based. The conditions noted are these: 150 nM centrinone, four cell cycle durations.
Assay [6] has as its system RPE1, BT-12, BT-16, CHP212, CHP134 and SK-N-F1 cells. Put plainly: Assessing mitotic phenotypes and mitotic duration by live cell imaging. The conditions noted are these: for rates of anaphase failure and/or cell death during mitosis: three cell cycles in 150 nM centrinone. The assay is classed as cell-based. How it is done: To examine the effects of centrosome removal, progression through mitosis after centrosome depletion was analyzed in three control cell lines with low TRIM37 levels (RPE1, BT-12 and BT-16), and in the three cell lines with the highest TRIM37 levels (CHP212, CHP134 and SK-N-F1). All of the tested cell lines, with the exception of SK-N-F1, were p53+.
For cells that completed mitosis, the inventors measured mitotic duration to determine if they would be likely to die due to tripping the mitotic duration sensor. […] The mean duration of mitosis in control SK-N-F1 cells, a p53− neuroblastoma cell line, was longer (104.7 minutes).
Assessing mitotic phenotypes: First, the cell cycle duration of the indicated cell lines was determined for each cell line by imaging cells expressing H2B-mRFP for 48-72 hours. The mean time from the beginning the first mitosis (nuclear envelope breakdown) until the beginning of the second mitosis in each daughter cell was the cell line specific cell cycle duration. […] Cells were seeded into 96-well polystyrene plates at 10,000 cells/well, 14-16 hours before imaging. Images were acquired on a CQ1 spinning disk confocal systems (Yokogawa Electric Corporation) with an Olympus UPLSAPO40 X 40×0.95 objective and 2560×2160 sCMOS camera (Andor) at 37° C. and 5% CO2 at 2×2 binning. Image acquisition and data analysis were performed using CellVoyager software and ImageJ, respectively. 12-24 fields/well were imaged. 5×2 μm z-sections in RFP (25% power, 150 ms) channels were captured in each field at 4-minute intervals for 24 hours. Mitotic duration was measured as the interval between nuclear envelope breakdown and chromosome decondensation. Mitotic phenotypes were categorized into ‘bipolar’, ‘multipolar’, ‘cell death during mitosis’ and ‘anaphase failure’.

Assay [7] concerns CHP134 cells and CHP134 clones with varying TRIM37 levels. Briefly: ATPlite cellular proliferation assay in CHP134 clones. The conditions noted are these: 5 days in 125 nM centrinone, WT CHP134 cells. The assay is classed as cell-based. How it is done: After CRISPR targeting, CHP134 clones with varying TRIM37 copy numbers were isolated and the levels of TRIM37 protein were measured by quantitative western blotting. Alpha-tubulin was used as a blotting control. Clones with TRIM37 levels between 12 and 64% of the levels in the WT cell line were isolated. […] Results are expressed as the percent of the value for the equivalent DMSO-treated control and are plotted versus measured TRIM37 protein level. […] Thus, for centrinone-treated CHP134 cells, mitotic success and cell viability both decreased as TRIM37 levels increased.
In general terms: In ATP-based viability assays light output follows the ATP content of the culture.

In assay [8] the test system is CHP134 cells in which TRIM37 was deleted, p53 was knocked down, or both. Briefly: Proliferation (12-day passaging) assay, CHP134 TRIM37 deletion / p53 knockdown cells. The format is cell-based. How it is done: as §3, §2
The subject of assay [9] is RPE1 cells and primary cell cultures. The conditions noted are these: cited from earlier work.

Each structure is given as a SMILES string.

With `COc1c(Nc2cc(C)[nH]n2)nc(Sc2ccc(S(=O)(=O)Cc3cccc([N+](=O)[O-])c3F)cc2F)nc1N1CCOCC1` [centrinone], the “cell number in passaging assay” value in assay [1] is reported as “cell number rapidly declined to zero”. Also, the “proliferation in passaging assay” value in assay [2] is given as “continued to proliferate”; in [3], “proliferated in centrinone at a rate comparable to non-mutant cells in DMSO”; in [8] (centrinone, CHP134 with TRIM37 deleted and p53 knocked down), “robust proliferation in centrinone”. Besides, the “sensitivity to centrosome removal in passaging assay” value in [4] is given as “highly sensitive”. The caspase activity entry in assay [5] ('Not Sensitive' cell lines (RPE1, BT-12, BT-16)) is “relatively low levels”; in assay [5] (three 'Sensitive' neuroblastoma cell lines) it was “high levels of caspase activity”. Besides, the “mean duration of mitosis after centrosome removal” value in assay [6] (CHP134) came to 257 min; in [6] (CHP212) it was 221 min. In addition, the “cells that fail to segregate their chromosomes” value in [6] (CHP134, absence of centrioles (FIG. 5A)) is recorded as “about 36%”. Moreover, the mitotic duration result in assay [6] (control RPE1 cells and RPE1 TRIM37Δ reconstituted with wild-type TRIM37, after centrinone) is listed as “substantial increase in mitotic duration”. The “rates of anaphase failure and/or cell death during mitosis” value in [6] (cell lines with high TRIM37 levels (CHP212, CHP134, SK-N-F1)) is reported as 31-74%; in assay [6] (three cell lines with low TRIM37 levels (RPE1, BT-12, BT-16)), 3-14%. Also, the “cellular proliferation (ATPlite), percent of DMSO-treated control” value in assay [7] was “loss in proliferation comparable to that of the two highest mutant clones”. Besides, the “proliferation in 12-day passaging assay” value in assay [8] (centrinone, CHP134 with shRNA-mediated knockdown of p53) is listed as “allowed CHP134 cells to proliferate”; in assay [8] (centrinone-treated CHP134, TRIM37 deletion), “enabled their proliferation”. For the same compound, the “response to centrinone-induced centrosome loss” value in assay [9] (RPE1 cells and 3 primary cell cultures with intact p53 pathway (Wong et al.)) is “stabilize p53 and arrest in G1”. Moreover, the “effect on centriole duplication” value in assay [9] (centrinone treatment (Wong et al.)) was “blocks centriole duplication”.
